Several values for one entry are separate records, joined by “and”; a condition that tells them apart may be missing. Equal entries are not always repeated.
Key:
[1] = system: endogenous target monocytes in human PBMC; test: PBMC ex vivo monocyte depletion flow cytometry assay (Example 200); assay type: cell-based; settings: with anti-cotinine antibody (SEQ ID NO: 11/12), 18-24 hours, EC50 in molar; for EC50: read-out: Ex Vivo Depletion Assay pEC50 (converted)
Procedure, shortened: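 Monocyte depletion is reported as pEC50, averaged or given individually across runs, and read by flow cytometry staining CD45, CD14 and CD4 with a viability dye. Compounds, diluted four-fold over 11 points from 1 mM DMSO stocks, were combined with 30 μg/mL Fc-enhanced anti-cotinine antibody and human PBMC, then incubated 18-24 h at 37° C.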

[2] = target: anti-cotinine antibody (SEQ ID NO: 11/12, rabbit variable region with human IgG1 Fc DE mutation); test: SPR binding of anti-cotinine antibody to ARM compounds, Biacore T200, 37° C. (Example 202); settings: SPR Biacore T200, 37° C., pH 7.4, antibody SEQ ID NO: 11/12 captured on protein A; Kd in molar
Procedure, shortened: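 Run at 37 °C in 10 mM HEPES pH 7.4, 150 mM NaCl, 0.005% P20, 1% DMSO, with compounds titrated from 200 nM (five 3-fold steps) over protein A–captured antibody. A 1:1 kinetic model on double-referenced data gave rate constants, Kd as koff/kon and residence time 1/koff; results as pKd, run-averaged.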

[3] = target: T1, CHOK1 cells engineered to overexpress human CCR2 (Homo sapiens, UniProt P41597); test: Antibody dependent cellular cytotoxicity (ADCC) reporter assay (Example 199); assay type: cell-based; settings: with anti-cotinine antibody (SEQ ID NO: 11/12), Jurkat FcγRIIIa NFAT-luciferase reporter cells, 12-18 hours, EC50 in molar, average or individual runs; for EC50: read-out: ADCC Reporter Assay pEC50 (converted)
T1 construct: expressed in transfected cells; host or cells: CHOK1
Protocol: An antibody dependent cellular cytoxocity reporter assay was conducted using the following four assay components: (i) ARM compound of Formula (I) targeting CCR2 (concentrations ranging from […] to 10 μM) (ii) anti-cotinine antibody having a heavy chain sequence of SEQ ID NO: 11 and a light chain sequence of SEQ ID NO: 12 (rabbit variable region with human IgG1 Fc domain containing a DE mutation (S239D/1332E)) (concentrations ranging from 0.01 μg/mL to 200 μg/mL); (iii) target cells: CHOK1 cells engineered to overexpress either human CCR2 (typically 1000-20,000 cells per well) and (iv) reporter cells: Jurkat cells engineered to express FcγRIIIa with the reporter gene luciferase under the control of the NFAT promoter (typically 3000-75,000 cells per well). Reagents were combined in a final volume of 20 μL in a 384-well tissue culture treated plate. All four assay components were incubated together for about 12-18 hours. Thereafter, BioGlo Detection reagent (Promega) was added to the wells to lyse the cells and provide a substrate for the luciferase reporter protein. Luminescence signal was measured on a microplate reader and signal: background was calculated by dividing the signal of a test well by the signal obtained when no heterobivalent compound of Formula (I) was added. EC50 calculations were done using Graphpad Prism Software, specifically a nonlinear regression curve fit (Y=Bottom+(Top−Bottom)/(1+10A((LogEC50−X)*HillSlope))).
ARMs compounds of Formula (I) of the invention were tested for ADCC activity in the above assay in or more experimental runs and the results are shown in Table 3 below. Potency of the compounds of Formula (I) of the invention is reported as a pEC50 value. The pEC50 value is the negative log of the EC50 value, wherein the EC50 value is the half maximal effective concentration measured in molar (M). For compounds tested in more than one experimental run, the pEC50 value is reported as an average.

[4] = system: CCR2 expressing cells (CD11b+Ly6c+Hi) in peripheral blood; test: In vivo depletion assay, flow cytometry of peripheral blood (Example 201); set-up: species or system human CCR2 knock-in mice (C57 background); settings: hCCR2 knock-in mice, IV 0.1 mpk compound + 10 mpk anti-cotinine antibody (SEQ ID NO: 13/14), peripheral blood at 48 hr
Procedure, shortened: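 Flow cytometry of blood collected at study termination quantified percent depletion of CD11b+Ly6c+Hi cells and CCR2 expression, using surface markers CD45, CD3, CD11b, Ly6C, human CCR2 after Fc block, with 7AAD viability stain. Compound given in saline:DMSO:PBS formulation, optionally combined with anti-cotinine antibody, incubated 30 min before administration.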

[5] = Blood drug concentration analysis by LC-MS/MS after IV dosing with anti-cotinine antibody (Example 201); assay type: in vivo; settings: C57 background, human CCR2 knock-in, mouse; hCCR2 knock-in mice, IV 0.1 mpk compound + 10 mpk anti-cotinine antibody, whole blood, 48 hours post-dose; read-out: Exposure of Compound of Formula (I) 48 hours post-dose
Protocol: After bleeding, each mouse was sacrificed by cervical dislocation. […] Flow Cytometry Analysis:
Samples were analyzed on Q-Trap. […] The total run time was 2 minutes.

SMILES	Ex Vivo Depletion Assay pEC50 [1]	pKd of Antibody for ARM Compound of Formula (I) [2]	ADCC Reporter Assay pEC50 [3]	EC50 [1] [nM]	% Depletion of CCR2 expressing cells [4] [%]	concentration at 48 h [5] [ng/mL]	EC50 [3]
CN1C(=O)C[C@H](C(=O)NCCCOCCCNC(=O)CCCC(=O)NC2CCC(C(=O)N[C@@H]3C[C@H](NC(C)(C)C)CC[C@@H]3N3CC[C@H](Nc4ncnc5ccc(C(F)(F)F)cc45)C3=O)CC2)[C@H]1c1cccnc1 (stereo partly drawn) [Example 22, N1-((1R,4r)-4-(((1R,2S,5R)-5-(tert-Butylamino)-2-((S)-2-oxo-3-((6-(trifluoromethyl)quinazolin-4-yl)amino)pyrrolidin-1-yl)cyclohexyl)carbamoyl)cyclohexyl)-N5-(3-(3-((2S,3S)-1-methyl-5-oxo-2-(pyridin-3-yl)pyrrolidine-3-carboxamido)propoxy)propyl)glutaramide]	9.2	9.2495	9 and 9.3	–	–	–	–
CC(C)N(C)[C@@H]1CC[C@H](N2CC[C@H](Nc3ncnc4ccc(C(F)(F)F)cc34)C2=O)[C@H](NC(=O)[C@H]2CC[C@@H](N3CCN(S(=O)(=O)C4CCN(C(=O)[C@H](C)NC(=O)[C@H]5CC(=O)N(C)[C@@H]5c5cccnc5)CC4)CC3)CC2)C1 [Example 71, (2S,3S)-N-((S)-1-(4-((4-((1S,4R)-4-(((1R,2S,5R)-5-(Isopropyl(methyl)amino)-2-((S)-2-oxo-3-((6-(trifluoromethyl)quinazolin-4-yl)amino)pyrrolidin-1-yl)cyclohexyl)carbamoyl)cyclohexyl)piperazin-1-yl)sulfonyl)piperidin-1-yl)-1-oxopropan-2-yl)-1-methyl-5-oxo-2-(pyridin-3-yl)pyrrolidine-3-carboxamide]	–	–	–	0.794	35.25	1	10 nM
CC(C)N(CCOCCOCCC(=O)N[C@H]1CC[C@@H](C(=O)N[C@@H]2C[C@H](N(C)C(C)C)CC[C@@H]2N2CC[C@H](Nc3ncnc4ccc(C(F)(F)F)cc34)C2=O)CC1)C(=O)CCNC(=O)[C@H]1CC(=O)N(C)[C@@H]1c1cccnc1 [Example 178, (2S,3S)-N-(3-(Isopropyl(2-(2-(3-(((1S,4s)-4-(((1R,2S,5R)-5-(isopropyl(methyl)amino)-2-((S)-2-oxo-3-((6-(trifluoromethyl)quinazolin-4-yl)amino)pyrrolidin-1-yl)cyclohexyl)carbamoyl)cyclohexyl)amino)-3-oxopropoxy)ethoxy)ethyl)amino)-3-oxopropyl)-1-methyl-5-oxo-2-(pyridin-3-yl)pyrrolidine-3-carboxamide]	–	–	–	0.398	–	–	0.501 nM and 0.126 nM
CC(C)N(C)[C@@H]1CC[C@H](N2CC[C@H](Nc3ncnc4ccc(C(F)(F)F)cc34)C2=O)[C@H](NC(=O)CCCCCCCCC(=O)NCCCCCCNC(=O)[C@H]2CC(=O)N(C)[C@@H]2c2cccnc2)C1 [Example 166, N1-((1R,2S,5R)-5-(isopropyl(methyl)amino)-2-((S)-2-oxo-3-((6-(trifluoromethyl)quinazolin-4-yl)amino)pyrrolidin-1-yl)cyclohexyl)-N10-(6-((2S,3S)-1-methyl-5-oxo-2-(pyridin-3-yl)pyrrolidine-3-carboxamido)hexyl)decanediamide]	–	–	–	1.26	–	–	0.501 nM
CC(C)N(C)[C@@H]1CC[C@H](N2CC[C@H](Nc3ncnc4ccc(C(F)(F)F)cc34)C2=O)[C@H](NC(=O)[C@H]2CC[C@H](N3CCN(S(=O)(=O)C4CCN(C(=O)[C@H](C)NC(=O)[C@H]5CC(=O)N(C)[C@@H]5c5cccnc5)CC4)CC3)CC2)C1 [Example 70, (2S,3S)-N-((S)-1-(4-((4-((1R,4S)-4-(((1R,2S,5R)-5-(isopropyl(methyl)amino)-2-((S)-2-oxo-3-((6-(trifluoromethyl)quinazolin-4-yl)amino)pyrrolidin-1-yl)cyclohexyl)carbamoyl)cyclohexyl)piperazin-1-yl)sulfonyl)piperidin-1-yl)-1-oxopropan-2-yl)-1-methyl-5-oxo-2-(pyridin-3-yl)pyrrolidine-3-carboxamide]	–	–	–	0.1	30.51	2.3	0.794 nM

Reference: patent US12521393B2, “Cytotoxicity targeting chimeras for CCR2-expressing cells” (GLAXOSMITHKLINE INTELLECTUAL PROPERTY DEVELOPMENT LIMITED, priority 2021, dated 2026)
